Test results taken from ChEMBL document CHEMBL1201862, “PubChem BioAssay data set” (2004).
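These data come from cells grown in 96-well plates and exposed to compound for 48 hours at five concentrations. GI50: concentration for 50% inhibition of growth.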 Active and inactive are the calls of the source. Cut-off read from the data, not from the text of the source: active = GI50 up to about 1.1 µM and inactive = higher.

Columns and labels:
Assay in all cases: inhibition of tumour cell growth, NCI panel, 48 h
SK-MEL-2 = tested on: SK-MEL-2
HL-60 = tested on: HL-60
NCI-H460 = tested on: NCI-H460
SNB-19 = tested on: SNB-19
HOP-62 = tested on: HOP-62
MOLT-4 = tested on: MOLT-4
M14 = tested on: M14
K562 = tested on: K562
A498 = tested on: A498
NCI-H226 = tested on: NCI-H226
SW-620 = tested on: SW-620
UACC-257 = tested on: UACC-257
OVCAR-5 = tested on: OVCAR-5
LOX IMVI = tested on: LOX IMVI
HT-29 = tested on: HT-29
U-251 = tested on: U-251
OVCAR-3 = tested on: OVCAR-3

Measured: GI50

CCOC(=O)/N=C(\N)SCc1ccccc1
inactive: SK-MEL-2 44.6 µM | HL-60 50.9 µM | NCI-H460 > 100 µM | SNB-19 > 100 µM | HOP-62 > 100 µM | MOLT-4 26.5 µM | M14 > 100 µM | K562 > 100 µM | A498 > 100 µM | NCI-H226 7.33 µM | SW-620 > 100 µM | UACC-257 > 100 µM | OVCAR-5 > 100 µM | LOX IMVI 43.9 µM | HT-29 > 100 µM | U-251 > 100 µM

NC(=O)N1N=C2c3ccccc3CC[C@@H]2C1c1ccccc1 (stereo partly drawn)
inactive: SK-MEL-2 > 100 µM | HL-60 42.9 µM | NCI-H460 > 100 µM | SNB-19 > 100 µM | HOP-62 > 100 µM | MOLT-4 69 µM | OVCAR-3 > 100 µM | M14 > 100 µM | K562 61.4 µM | A498 > 100 µM | NCI-H226 > 100 µM | SW-620 > 100 µM | UACC-257 > 100 µM | OVCAR-5 > 100 µM | LOX IMVI > 100 µM | HT-29 > 100 µM | U-251 > 100 µM

CN(C)C(=O)OC(Cn1cncn1)c1ccc(Cl)cc1Cl (stereo not drawn)
inactive: SK-MEL-2 > 100 µM | HL-60 > 100 µM | NCI-H460 > 100 µM | SNB-19 > 100 µM | HOP-62 > 100 µM | MOLT-4 > 100 µM | OVCAR-3 > 100 µM | M14 > 100 µM | K562 > 100 µM | A498 > 100 µM | NCI-H226 > 100 µM | SW-620 > 100 µM | UACC-257 > 100 µM | OVCAR-5 > 100 µM | LOX IMVI > 100 µM | HT-29 > 100 µM | U-251 > 100 µM

Cc1nn(-c2nc3ccccc3s2)c2c1C(=O)c1ccccc1-2
inactive: SK-MEL-2 > 100 µM | HL-60 > 100 µM | NCI-H460 > 100 µM | SNB-19 > 100 µM | HOP-62 > 100 µM | OVCAR-3 > 100 µM | M14 > 100 µM | K562 > 100 µM | A498 > 100 µM | SW-620 > 100 µM | UACC-257 > 100 µM | OVCAR-5 > 100 µM | LOX IMVI > 100 µM | HT-29 > 100 µM | U-251 60.7 µM

COC1(C)CC2N(C(=O)c3ccccc3)N=C(c3ccccc3)CC2(C)O1 (stereo not drawn)
inactive: SK-MEL-2 > 100 µM | HL-60 > 100 µM | NCI-H460 69.5 µM | SNB-19 > 100 µM | HOP-62 > 100 µM | MOLT-4 61.7 µM | OVCAR-3 > 100 µM | M14 > 100 µM | K562 88.9 µM | A498 > 100 µM | NCI-H226 > 100 µM | SW-620 > 100 µM | UACC-257 > 100 µM | OVCAR-5 > 100 µM | LOX IMVI > 100 µM | HT-29 > 100 µM

CCCCNC(=NC#N)NCCCC
inactive: SK-MEL-2 > 100 µM | NCI-H460 > 100 µM | SNB-19 > 100 µM | HOP-62 > 100 µM | MOLT-4 > 100 µM | OVCAR-3 > 100 µM | M14 > 100 µM | K562 > 100 µM | A498 > 100 µM | NCI-H226 > 100 µM | SW-620 21.3 µM | UACC-257 > 100 µM | OVCAR-5 > 100 µM | HT-29 > 100 µM | U-251 99.5 µM

N#CCCN(c1ccc(/C=N/c2ccccc2)cc1)S(=O)(=O)c1ccccc1
inactive: SK-MEL-2 > 100 µM | HL-60 31.1 µM | SNB-19 > 100 µM | HOP-62 23.7 µM | MOLT-4 > 100 µM | OVCAR-3 > 100 µM | M14 8.93 µM | K562 2.97 µM | A498 > 100 µM | NCI-H226 > 100 µM | SW-620 > 100 µM | UACC-257 > 100 µM | HT-29 17 µM

CCCCCCCCCCCOC(=S)NC(C)C
inactive: SK-MEL-2 19.2 µM | HL-60 15.6 µM | NCI-H460 21.3 µM | SNB-19 29.6 µM | HOP-62 20.1 µM | MOLT-4 16.7 µM | M14 23.2 µM | K562 21.2 µM | A498 19.6 µM | SW-620 16.3 µM | UACC-257 19.1 µM | OVCAR-5 24.7 µM | LOX IMVI 16.7 µM | HT-29 17.1 µM | U-251 15.8 µM

COc1ccc(/C=C2\CN(C)Cc3c2nc(N)nc3-c2ccc(OC)cc2)cc1
inactive: SK-MEL-2 83.4 µM | HL-60 28.7 µM | NCI-H460 > 100 µM | SNB-19 > 100 µM | HOP-62 64.1 µM | MOLT-4 30.1 µM | OVCAR-3 > 100 µM | M14 69.3 µM | K562 70.5 µM | A498 > 100 µM | NCI-H226 > 100 µM | SW-620 57.4 µM | OVCAR-5 > 100 µM | LOX IMVI 79.4 µM | U-251 67.5 µM

CCCC1(CC(=O)O)OCCc2c1[nH]c1ccccc21 (stereo not drawn) [PRODOLIC ACID]
inactive: SK-MEL-2 > 100 µM | HL-60 > 100 µM | SNB-19 > 100 µM | HOP-62 > 100 µM | MOLT-4 > 100 µM | OVCAR-3 > 100 µM | M14 > 100 µM | K562 > 100 µM | A498 > 100 µM | NCI-H226 > 100 µM | SW-620 > 100 µM | UACC-257 > 100 µM | OVCAR-5 > 100 µM | LOX IMVI > 100 µM | U-251 > 100 µM

CCCCCCCCCCCCCC(=S)N/C=C/OC
inactive: SK-MEL-2 32 µM | HL-60 16.1 µM | NCI-H460 29.3 µM | SNB-19 45.9 µM | HOP-62 48 µM | OVCAR-3 23.6 µM | M14 35.3 µM | A498 23.2 µM | NCI-H226 43.8 µM | SW-620 35.5 µM | UACC-257 24.5 µM | OVCAR-5 > 100 µM | LOX IMVI 20.5 µM | HT-29 21.3 µM | U-251 21.4 µM

COc1ccc(C2Oc3ccc(O)cc3[C@@H]2C)cc1OC (stereo partly drawn)
inactive: SK-MEL-2 > 100 µM | HL-60 34.3 µM | NCI-H460 > 100 µM | SNB-19 > 100 µM | HOP-62 > 100 µM | MOLT-4 37.6 µM | OVCAR-3 > 100 µM | M14 > 100 µM | K562 > 100 µM | NCI-H226 > 100 µM | SW-620 > 100 µM | UACC-257 > 100 µM | OVCAR-5 > 100 µM | LOX IMVI > 100 µM | HT-29 > 100 µM | U-251 > 100 µM

COC1OC(C)C(OC(=O)C(C)(C)C)C(OS(=O)(=O)c2ccc(C)cc2)C1OS(=O)(=O)c1ccc(C)cc1 (stereo not drawn)
inactive: SK-MEL-2 > 100 µM | HL-60 > 100 µM | NCI-H460 > 100 µM | SNB-19 > 100 µM | HOP-62 > 100 µM | MOLT-4 > 100 µM | OVCAR-3 > 100 µM | M14 > 100 µM | K562 > 100 µM | NCI-H226 > 100 µM | SW-620 > 100 µM | UACC-257 > 100 µM | OVCAR-5 > 100 µM | HT-29 > 100 µM | U-251 > 100 µM

CC(=O)N/N=C1\CC(C)(C)C2CCC1C2 (stereo not drawn)
inactive: SK-MEL-2 > 100 µM | HL-60 > 100 µM | NCI-H460 > 100 µM | SNB-19 > 100 µM | HOP-62 > 100 µM | MOLT-4 > 100 µM | OVCAR-3 > 100 µM | M14 > 100 µM | K562 > 100 µM | A498 > 100 µM | SW-620 > 100 µM | UACC-257 > 100 µM | OVCAR-5 > 100 µM | LOX IMVI > 100 µM | U-251 > 100 µM

O=C(/C=N/c1ccccc1[S-])c1ccco1.O=C(/C=N/c1ccccc1[S-])c1ccco1.[Zn+2]
inactive: SK-MEL-2 15.8 µM | HL-60 3.56 µM | NCI-H460 3.87 µM | SNB-19 5.78 µM | HOP-62 6 µM | MOLT-4 5.2 µM | OVCAR-3 15.2 µM | M14 6.53 µM | K562 18.9 µM | A498 21.5 µM | SW-620 10.9 µM | UACC-257 12.5 µM | OVCAR-5 16.8 µM | LOX IMVI 7.46 µM | HT-29 18.7 µM | U-251 4.23 µM

COc1cccc(C2=NC(C(C)C)CO2)c1 (stereo not drawn)
inactive: SK-MEL-2 > 100 µM | HL-60 > 100 µM | NCI-H460 > 100 µM | SNB-19 > 100 µM | HOP-62 > 100 µM | MOLT-4 > 100 µM | OVCAR-3 > 100 µM | M14 > 100 µM | K562 > 100 µM | A498 > 100 µM | NCI-H226 > 100 µM | SW-620 > 100 µM | UACC-257 > 100 µM | OVCAR-5 > 100 µM | LOX IMVI > 100 µM | HT-29 > 100 µM

C[Si](C)(C)c1ccc(CC2(Cc3ccc([Si](C)(C)C)cc3)CCNC2)cc1
inactive: SK-MEL-2 1.76 µM | HL-60 7.18 µM | NCI-H460 2.04 µM | SNB-19 4 µM | HOP-62 2.94 µM | OVCAR-3 1.97 µM | M14 1.76 µM | K562 3.62 µM | A498 1.55 µM | NCI-H226 1.88 µM | SW-620 1.86 µM | UACC-257 2.44 µM | OVCAR-5 4.67 µM | LOX IMVI 1.8 µM | HT-29 2.04 µM | U-251 1.66 µM

O=[N+]([O-])c1ccc(C2CC(c3ccc(NCc4nc5ccccc5[nH]4)cc3)=NO2)cc1 (stereo not drawn)
inactive: SK-MEL-2 > 100 µM | HL-60 20.4 µM | NCI-H460 15.6 µM | SNB-19 37.3 µM | HOP-62 > 100 µM | MOLT-4 6.92 µM | OVCAR-3 3.56 µM | M14 33.5 µM | K562 21.1 µM | A498 15.3 µM | SW-620 33.5 µM | OVCAR-5 > 100 µM | LOX IMVI 35.5 µM | HT-29 38.5 µM | U-251 36.4 µM
